Results from US20130261132A1, “CALCIUM-SENSING RECEPTOR-ACTIVE COMPOUNDS” (LEO PHARMA A/S, priority 2010, published 2013).

Tests used:
[1] = Clearance in human liver microsomes; format: in vitro ADME; details: hepatic extraction ratio; test compound 0.5 μM, microsomes 0.5 mg/mL, NADPH 1 mM, 37° C.
Description: Test compound concentration is 0.5 μM, microsome concentration is 0.5 mg/mL and NADPH concentration is 1 mM in the incubation. The described method is performed by the liquid handling system Tecan RSP and is based on a 96-well format.
Control incubations with test compound without NADPH and test compound without microsomes are conducted to investigate non-CYP mediated metabolism and stability in phosphate buffer at 37° C., respectively.
The human liver microsomal suspension in phosphate buffer is mixed with NADPH. The mixture is pre-heated (7 min) to 37° C. Test compound is added, and the mixture is incubated for 30 minutes. Incubations are run in duplicate. Samples are withdrawn at predetermined stop times and mixed with methanol containing internal standard (IS) to terminate all enzyme activity and precipitate proteins. A control without NADPH (to detect problems such as nonspecific protein binding, heat instability or non-CYP mediated metabolism) and a control without microsomes (for assessing compound stability in the absence of any active enzymes) are tested.
The percentage of organic solvent in the incubations is less than 1%. Careful inspections of reagents are performed prior to the start of any experiment to ensure all reagents are in solution.
The 96-well plates are centrifuged. Test compound depletion, using a compound specific LC/MS/MS method, is determined.
The logarithm of the peak area ratios of test compound to internal standard (IS) versus incubation time is plotted in a graph.
The rate constant (k) (min^−1) of test compound depletion is calculated from the linear part of the curve and the half-time (t1/2) in minutes can be calculated from the rate constant (Eq. 2).
Intrinsic clearance (CIint) (mL/min/mg protein) is calculated from: […]
where c is the microsomal protein concentration in mg/mL.
Conversion to apparent clearance (CIapp) (mL/min/kg) is done by Eq. 4:
CIapp=CIint×a×b/d (Eq. 4)
where a, b and d are the scaling factors for normalizing CIint to human body weight.
a: 45 (microsomal protein/liver weight (mg/g))
b: 1500 (liver weight (g))
Hepatic clearance (CIh) (mL/min/kg) based on the well-stirred model is described as followed:
CIh=(CIapp·Q)/(CIapp+Q) (Eq. 5)
where Q is the liver blood flow in mL/min/kg (20 in humans).
Dividing hepatic clearance with liver blood flow, the hepatic extraction ratio (%) can be calculated:
Apparent clearance below approximately 10 mL/min/kg human body weight (corresponding to extraction ratio of approx. 33%) is considered as low clearance (high metabolic stability). Apparent intrinsic clearance above approximately 60 mL/min/kg human body weight (corresponding to extraction ratio of approx. 75%) is considered as high clearance (low metabolic stability).

human CaSR = target: T1, human CaSR (Homo sapiens, UniProt P41180); assay: Functional whole cell assay (modulation of human CaSR), IP1 accumulation in CHO-K1 cells; format: cell-based; details: CHO-K1 cells stably expressing human CaSR, final Ca2+ 1.9 mM, IP1 readout; concentration producing 50% of maximum agonistic response
T1 sequence (P41180 20-1078): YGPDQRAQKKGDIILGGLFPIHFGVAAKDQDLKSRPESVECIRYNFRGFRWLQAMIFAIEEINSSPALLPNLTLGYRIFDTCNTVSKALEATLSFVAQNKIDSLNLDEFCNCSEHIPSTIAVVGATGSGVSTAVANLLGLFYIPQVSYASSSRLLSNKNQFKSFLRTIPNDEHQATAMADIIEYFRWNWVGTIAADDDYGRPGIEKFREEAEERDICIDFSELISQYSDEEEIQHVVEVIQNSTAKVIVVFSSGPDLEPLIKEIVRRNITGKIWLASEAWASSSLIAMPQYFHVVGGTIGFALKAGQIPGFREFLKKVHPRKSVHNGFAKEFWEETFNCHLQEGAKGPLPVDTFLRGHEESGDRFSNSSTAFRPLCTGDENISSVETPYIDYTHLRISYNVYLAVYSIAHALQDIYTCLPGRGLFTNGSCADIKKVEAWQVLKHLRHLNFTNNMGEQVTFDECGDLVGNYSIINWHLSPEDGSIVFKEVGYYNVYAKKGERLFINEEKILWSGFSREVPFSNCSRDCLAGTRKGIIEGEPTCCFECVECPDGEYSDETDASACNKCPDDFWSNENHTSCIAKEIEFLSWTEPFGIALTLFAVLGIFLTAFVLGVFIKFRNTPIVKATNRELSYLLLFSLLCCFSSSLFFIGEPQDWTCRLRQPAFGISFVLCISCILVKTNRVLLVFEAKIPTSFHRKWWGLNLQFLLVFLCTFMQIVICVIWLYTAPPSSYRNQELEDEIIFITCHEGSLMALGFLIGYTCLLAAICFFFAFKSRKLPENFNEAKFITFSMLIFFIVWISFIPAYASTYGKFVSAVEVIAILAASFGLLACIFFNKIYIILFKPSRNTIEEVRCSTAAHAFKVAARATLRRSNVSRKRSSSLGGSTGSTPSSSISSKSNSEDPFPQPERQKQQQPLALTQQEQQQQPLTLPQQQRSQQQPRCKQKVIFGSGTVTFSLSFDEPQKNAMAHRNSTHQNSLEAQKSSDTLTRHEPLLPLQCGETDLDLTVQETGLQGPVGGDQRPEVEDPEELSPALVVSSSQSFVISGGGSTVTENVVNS
Excerpt: The assay investigates a compound's functional ability to act as a biological positive modulator on the human CaSR. Activation of the receptor expressed on CHO-K1 cells is detected through the G alpha q pathway, the activation of phospholipase C and the accumulation of intracellular inositol phosphate (IP) as described earlier [Sandrine Ferry, Bruno Chatel, Robert H. Dodd, Christine Lair, Danielle Gully, Jean-Pierre Maffrand, and Martial Ruat. Effects of Divalent Cations and of a Calcimimetic on Adrenocorticotropic Hormone Release in Pituitary Tumor Cells. Biochemical and biophysical research Communications 238, 866-873 (1997)]. The human CaSR is stably expressed on a CHO-K1 cell clone, stimulated with a basal level of calcium and challenged with the tested compound. The level of IP1 is determined using the IP-One Terbium htrf kit (Cisbio, France). CHO-K1 cells not transfected with the CaSR fail to elicit an IP1 response upon calcium and/or compound stimulation.
The ORF coding for the human CaSR (genebank: NM_000388) was acquired from Invitrogen Corp, USA and subsequently cloned into the mammalian expression vector pCDA3.1.
CHO-K1 cells were transfected using Lipofectamine according to manufacturer's protocol (400.000 cells/well were seeded in a 6-well plate and transfected after 24 hours using 2 μg DNA and 5 μl lipofectamine). After another 24 hours the cells were detached, seeded and subjected to 1 mg/ml of G-418. Following 7 days growth single clones were picked, the CaSR expression evaluated using the 5C10 antibody against CaSR, the clones with the highest expression were selected and tested for functional response. The preferred clone was cultured according to standard procedures described in ATCC (American Type Culture Collection) protocols for CHO-K1 with the addition of 500 μg/ml G-418.
On the assay day, cells were thawed, harvested and resuspended to 4*10^6 cells/ml in stimulation buffer (containing: Hepes 10 mM, MgCl2 0.5 mM, KCl 4.2 mM, NaCl 146 mM, glucose 5.5 mM, LiCl 50 mM, BSA 0.5% at pH 7.4). Ten μl cell solution was pipetted into wells of a white 384-well plate (Perkin Elmer Optiplate) containing 2 μl compound diluted in assay buffer (containing: Hepes 10 mM, MgCl2 0.5 mM, KCl 4.2 mM, NaCl 146 mM, glucose 5.5 mM, LiCl 50 mM, CaCl2 11.4 mM at pH 7.4), resulting in a final Ca^2+ concentration of 1.9 mM. After compound stimulation for 1 hour at 37° C. and 15 min at room temperature, 10 ul of IP-One assay detection reagent (prepared as described by the IP-One assay kit manufacturer) was added and the plate was incubated for another 1 hour at room temperature. Finally the plate was read using a Perkin Elmer EnVision, according to the protocol supplied by the IP-One assay kit manufacturer. The FRET ratio was calculated by dividing the 665 nm emission signal with that of the 615 nm.
The molar concentration of a compound that produces 50% of the maximum agonistic response (the […] value) is calculated according to the equation “General sigmoidal curve with Hill slope, a to d” (Equation 1). This model describes a sigmoidal curve with an adjustable baseline. The equation can be used to fit curves where response is either increasing or decreasing with respect to the independent variable, X. […]
y=(a−d)/(1+(x/c)̂b)+d Equation 1 x=concentration of tested compound […]
a=min response as compound concentration approaches 0 d=max response as concentration of tested compound is increasing […]
b=Hill coefficient or curve slope

**Q.** Which results are given for `C[C@@H](N[C@H]1CC[C@@H](c2ccc(OCC(=O)NC3CCNCC3)cc2)C1)c1cccc(Cl)c1` [Compound 102, 2-[4-[(1R,3S)-3-[[(1R)-1-(3-Chlorophenyl)ethyl]amino]-cyclopentyl]-phenoxy]-N-(4-piperidyl)-acetamide]?
**A.** Clearance (% Eh) in human liver microsomes [1]: A (A: Eh < 33%); EC50 (human CaSR): 200 to 1000 nM
